One experiment has as its target T1, Orexin receptor type 2 (Homo sapiens, UniProt O43614).
T1 sequence (O43614 whole entry): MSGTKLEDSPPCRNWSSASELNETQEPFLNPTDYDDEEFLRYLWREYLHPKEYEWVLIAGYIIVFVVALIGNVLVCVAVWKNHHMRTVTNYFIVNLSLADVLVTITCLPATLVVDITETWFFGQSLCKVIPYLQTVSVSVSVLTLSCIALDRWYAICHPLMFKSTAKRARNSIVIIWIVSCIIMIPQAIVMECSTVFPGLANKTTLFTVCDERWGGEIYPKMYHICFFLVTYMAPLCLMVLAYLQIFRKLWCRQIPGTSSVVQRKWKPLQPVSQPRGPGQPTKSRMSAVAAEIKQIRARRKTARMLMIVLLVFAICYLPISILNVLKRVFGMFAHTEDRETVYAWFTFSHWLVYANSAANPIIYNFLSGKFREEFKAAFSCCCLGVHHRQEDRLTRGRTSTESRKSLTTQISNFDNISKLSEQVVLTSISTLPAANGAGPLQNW
Description: Agonist activity at human OX2R expressed in CHO-K1 cells by FLIPR calcium flux assay. The experiment is classed as functional, cell-based. (In general: Calcium flux is commonly read through the fluorescence of an indicator in the cells.)

The test system of a further experiment is Mus musculus. Kind of experiment: Sleep modulation activity in ICR mouse assessed as increase in time spent in wakefulness at 3 mg/kg, sc administered at zeitgeber time 5 measured after 3 hrs post injection. The experiment is classed as functional, organism-based.

Each structure is given as a SMILES string. Activity calls are given as the source filed them. The rule behind the calls is not given here.

By EC50 is commonly meant the concentration giving half of the maximal effect. `CC[C@H](C)[C@H](NC(=O)CNC(=O)[C@H](C)NC(=O)[C@H](C)NC(=O)[C@H](Cc1cnc[nH]1)NC(=O)[C@H](CC(N)=O)NC(=O)CNC(=O)[C@H](C)NC(=O)CNC(=O)[C@H](Cc1cnc[nH]1)NC(=O)[C@H](CC(C)C)NC(=O)[C@H](CC(C)C)NC(=O)[C@H](CCC(=O)O)NC(=O)[C@H](Cc1ccc(O)cc1)NC(=O)[C@H](CC(C)C)NC(=O)[C@H](CCCNC(=N)N)NC(=O)[C@H](CS)NC(=O)[C@H](CO)NC(=O)[C@H](CS)NC(=O)[C@@H](NC(=O)[C@H](CCCCN)NC(=O)[C@H](CCC(N)=O)NC(=O)[C@H](CCCNC(=N)N)NC(=O)[C@H](CS)NC(=O)[C@H](CS)NC(=O)[C@H](CC(=O)O)NC(=O)[C@@H]1CCCN1C(=O)[C@H](CC(C)C)NC(=O)[C@@H]1CCCN1C(=O)[C@@H]1CCC(=O)N1)[C@@H](C)O)C(=O)N[C@@H](CC(C)C)C(=O)N[C@H](C(=O)N[C@@H](CC(C)C)C(=O)O)[C@@H](C)O`: the EC50 at Orexin receptor type 2 is 0.18 nM.

Regarding `COC(=O)N1CCC[C@H](NS(C)(=O)=O)[C@@H]1CO[C@H]1CC[C@@H](c2ccccc2)CC1`, in the experiment with Mus musculus, the outcome was Active.
